ChEMBL document CHEMBL1811903, “Protective role of 14-deoxy-11,12-didehydroandrographolide, a noncytotoxic analogue of andrographolide, in allergic airway inflammation” (J Nat Prod, 2011)
Activity calls are given as the source filed them.

Key:
[1] = test system: Mus musculus; assay: Antiinflammatory activity in ovalbumin-sensitized ip dosed BALB/c mouse asthma model assessed as reduction in IL-5 level in bronchoalveolar lavage fluid administered 2 hrs before and 10 hrs after ovalbumin challenge measured after 24 hrs by ELISA; assay type: functional, organism-based; conditions: Lung
[2] = test system: Mus musculus; assay: Antiinflammatory activity in ovalbumin-sensitized BALB/c mouse asthma model assessed as reduction in methacholine-induced maximum total lung resistance at 1 mg/kg, ip administered 2 hrs before and 10 hrs after ovalbumin challenge; assay type: functional, organism-based; set-up: dose 1 mg/kg
[3] = test system: Mus musculus; assay: Antiinflammatory activity in BALB/c mouse asthma model assessed as reduction in ovalbumin-induced lymphocyte counts in bronchoalveolar lavage fluid at 1 mg/kg, ip administered 2 hrs before and 10 hrs after ovalbumin challenge measured after 24 hrs by cell counting; assay type: functional, organism-based; set-up: dose 1 mg/kg; conditions: Lung
[4] = test system: Mus musculus; assay: Antiinflammatory activity in ip dosed BALB/c mouse asthma model assessed as reduction in ovalbumin-induced eosinophil counts in bronchoalveolar lavage fluid administered 2 hrs before and 10 hrs after ovalbumin challenge measured after 24 hrs by cell counting; assay type: functional, organism-based; conditions: Lung
[5] = test system: Mus musculus; assay: Antiinflammatory activity in ovalbumin-sensitized ip dosed BALB/c mouse asthma model assessed as reduction in IL-13 level in bronchoalveolar lavage fluid administered 2 hrs before and 10 hrs after ovalbumin challenge measured after 24 hrs by ELISA; assay type: functional, organism-based; conditions: Lung
[6] = test system: Mus musculus; assay: Toxicity in BALB/c mouse assessed as reduction in hemoglobin concentration at 1 mg/kg, ip; assay type: organism-based; set-up: dose 1 mg/kg, route intraperitoneal; conditions: in vivo
[7] = target: Transcription factor p65 (Homo sapiens) (UniProt Q04206); assay: Inhibition of NF-kappaB p65 subunit in TNFalpha-stimulated human A549 cells assessed as reduction in DNA binding activity at 30 uM after 24 hrs by ELISA; assay type: cell-based
[8] = test system: Mus musculus; assay: Toxicity in BALB/c mouse assessed as reduction in hematocrit at 1 mg/kg, ip; assay type: organism-based; set-up: dose 1 mg/kg, route intraperitoneal; conditions: in vivo
[9] = test system: Mus musculus; assay: Toxicity in BALB/c mouse assessed as reduction in white blood cell count at 1 mg/kg, ip; assay type: organism-based; set-up: dose 1 mg/kg, route intraperitoneal; conditions: in vivo
[10] = test system: Mus musculus; assay: Antiinflammatory activity in ovalbumin-sensitized BALB/c mouse asthma model lung assessed as suppression in AMCase mRNA level at 1 mg/kg, ip administered 2 hrs before and 10 hrs after ovalbumin challenge measured after 24 hrs by RT-PCR analysis; assay type: functional, organism-based; set-up: dose 1 mg/kg
[11] = test system: Mus musculus; assay: Antiinflammatory activity in ovalbumin-sensitized BALB/c mouse asthma model assessed as reduction in IgG2a level in serum at 0.1 to 1 mg/kg, ip administered 2 hrs before and 10 hrs after ovalbumin challenge measured after 24 hrs by ELISA; assay type: functional, organism-based
[12] = test system: Mus musculus; assay: Antiinflammatory activity in ovalbumin-sensitized BALB/c mouse asthma model lung assessed as suppression in VCAM-1 mRNA level at 1 mg/kg, ip administered 2 hrs before and 10 hrs after ovalbumin challenge measured after 24 hrs by RT-PCR analysis; assay type: functional, organism-based; set-up: dose 1 mg/kg
[13] = test system: Mus musculus; assay: Antiinflammatory activity in ovalbumin-sensitized BALB/c mouse asthma model lung assessed as Inhibition of NF-kappaB p65 subunit nuclear translocation at 1 mg/kg, ip administered 2 hrs before and 10 hrs after ovalbumin challenge measured after 24 hrs by immunoblotting; assay type: functional, organism-based; set-up: dose 1 mg/kg
[14] = target: Transcription factor p65 (Homo sapiens) (UniProt Q04206); assay: Inhibition of NF-kappaB p65 subunit translocation in TNFalpha-stimulated human A549 cells assessed as reduction in p65 level in nuclear extract at 30 uM after 24 hrs by immunoblotting; assay type: cell-based
[15] = test system: Mus musculus; assay: Antiinflammatory activity in ovalbumin-sensitized BALB/c mouse asthma model lung assessed as suppression in […] mRNA level at 1 mg/kg, ip administered 2 hrs before and 10 hrs after ovalbumin challenge measured after 24 hrs by RT-PCR analysis; assay type: functional, organism-based; set-up: dose 1 mg/kg
[16] = test system: Mus musculus; assay: Antiinflammatory activity in ovalbumin-sensitized ip dosed BALB/c mouse asthma model assessed as reduction in eotaxin level in bronchoalveolar lavage fluid administered 2 hrs before and 10 hrs after ovalbumin challenge measured after 24 hrs by ELISA; assay type: functional, organism-based; conditions: Lung
[17] = test system: Mus musculus; assay: Antiinflammatory activity in ovalbumin-sensitized BALB/c mouse asthma model lung assessed as suppression in IL-17 mRNA level at 1 mg/kg, ip administered 2 hrs before and 10 hrs after ovalbumin challenge measured after 24 hrs by RT-PCR analysis; assay type: functional, organism-based; set-up: dose 1 mg/kg
[18] = Cytotoxicity against human BEAS2B cells assessed as reduction in cell viability at 3 to 120 uM after 24 to 48 hrs by MTS assay; assay type: cell-based; conditions: beas-2b
[19] = test system: Mus musculus; assay: Antiinflammatory activity in ovalbumin-sensitized BALB/c mouse asthma model lung assessed as suppression in Muc5ac mRNA level at 1 mg/kg, ip administered 2 hrs before and 10 hrs after ovalbumin challenge measured after 24 hrs by RT-PCR analysis; assay type: functional, organism-based; set-up: dose 1 mg/kg
[20] = test system: Mus musculus; assay: Antiinflammatory activity in ovalbumin-sensitized BALB/c mouse asthma model assessed as reduction in IgE level in serum at 0.1 to 1 mg/kg, ip administered 2 hrs before and 10 hrs after ovalbumin challenge measured after 24 hrs by ELISA; assay type: functional, organism-based
[21] = test system: Mus musculus; assay: Toxicity in BALB/c mouse assessed as reduction in red blood cell count at 1 mg/kg, ip; assay type: organism-based; set-up: dose 1 mg/kg, route intraperitoneal; conditions: in vivo
[22] = test system: Mus musculus; assay: Antiinflammatory activity in ovalbumin-sensitized BALB/c mouse asthma model lung assessed as suppression in IL-33 mRNA level at 1 mg/kg, ip administered 2 hrs before and 10 hrs after ovalbumin challenge measured after 24 hrs by RT-PCR analysis; assay type: functional, organism-based; set-up: dose 1 mg/kg
[23] = test system: Mus musculus; assay: Antiinflammatory activity in ovalbumin-sensitized BALB/c mouse asthma model lung assessed as suppression in COX-2 mRNA level at 1 mg/kg, ip administered 2 hrs before and 10 hrs after ovalbumin challenge measured after 24 hrs by RT-PCR analysis; assay type: functional, organism-based; set-up: dose 1 mg/kg
[24] = test system: RBL-2H3; assay: Inhibition of IgE-mediated rat RBL2H3 cell degranulation assessed as inhibition of beta-hexosaminidase release; assay type: functional, cell-based
[25] = test system: Mus musculus; assay: Antiinflammatory activity in ovalbumin-sensitized BALB/c mouse asthma model assessed as reduction in IgG1 level in serum at 0.1 to 1 mg/kg, ip administered 2 hrs before and 10 hrs after ovalbumin challenge measured after 24 hrs by ELISA; assay type: functional, organism-based
[26] = test system: Mus musculus; assay: Antiinflammatory activity in ovalbumin-sensitized BALB/c mouse asthma model lung assessed as suppression in E-selectin mRNA level at 1 mg/kg, ip administered 2 hrs before and 10 hrs after ovalbumin challenge measured after 24 hrs by RT-PCR analysis; assay type: functional, organism-based; set-up: dose 1 mg/kg
[27] = test system: Mus musculus; assay: Antiinflammatory activity in ovalbumin-sensitized BALB/c mouse asthma model lung assessed as suppression in MCP-1 mRNA level at 1 mg/kg, ip administered 2 hrs before and 10 hrs after ovalbumin challenge measured after 24 hrs by RT-PCR analysis; assay type: functional, organism-based; set-up: dose 1 mg/kg
[28] = test system: Mus musculus; assay: Antiinflammatory activity in ovalbumin-sensitized BALB/c mouse asthma model assessed as reduction in goblet cell hyperplasia at 1 mg/kg, ip administered 2 hrs before and 10 hrs after ovalbumin challenge measured after 24 hrs using hematoxylin and eosin staining by histologic analysis; assay type: functional, organism-based; set-up: dose 1 mg/kg
[29] = test system: Mus musculus; assay: Antiinflammatory activity in ovalbumin-sensitized BALB/c mouse asthma model assessed as reduction in mucus production in lung at 1 mg/kg, ip administered 2 hrs before and 10 hrs after ovalbumin challenge measured after 24 hrs using PAS staining by histologic analysis; assay type: functional, organism-based; set-up: dose 1 mg/kg
[30] = test system: A549; assay: Cytotoxicity against human A549 cells assessed as reduction in cell viability at 3 to 120 uM after 24 to 48 hrs by MTS assay; assay type: cell-based; conditions: a549, 120 µM
[31] = test system: Mus musculus; assay: Antiinflammatory activity in BALB/c mouse asthma model assessed as reduction in ovalbumin-induced macrophage counts in bronchoalveolar lavage fluid at 1 mg/kg, ip administered 2 hrs before and 10 hrs after ovalbumin challenge measured after 24 hrs by cell counting; assay type: functional, organism-based; set-up: dose 1 mg/kg; conditions: Lung
[32] = test system: Mus musculus; assay: Antiinflammatory activity in ovalbumin-sensitized BALB/c mouse asthma model lung assessed as reduction in NF-kappaB DNA binding activity at 1 mg/kg, ip administered 2 hrs before and 10 hrs after ovalbumin challenge measured after 24 hrs by immunoblotting; assay type: functional, organism-based; set-up: dose 1 mg/kg
[33] = test system: Mus musculus; assay: Antiinflammatory activity in ovalbumin-sensitized BALB/c mouse asthma model lung assessed as suppression in Ym-1 mRNA level at 1 mg/kg, ip administered 2 hrs before and 10 hrs after ovalbumin challenge measured after 24 hrs by RT-PCR analysis; assay type: functional, organism-based; set-up: dose 1 mg/kg
[34] = test system: Mus musculus; assay: Antiinflammatory activity in ip dosed BALB/c mouse asthma model assessed as reduction in ovalbumin-induced total cell counts in bronchoalveolar lavage fluid administered 2 hrs before and 10 hrs after ovalbumin challenge measured after 24 hrs by cell counting; assay type: functional, organism-based; conditions: Lung
[35] = test system: RBL-2H3; assay: Cytotoxicity against rat RBL2H3 cells assessed as reduction in cell viability at 3 to 120 uM after 24 to 48 hrs by MTS assay; assay type: cell-based; conditions: rbl-2h3, 120 µM
[36] = test system: Mus musculus; assay: Antiinflammatory activity in ovalbumin-sensitized ip dosed BALB/c mouse asthma model assessed as reduction in IL-4 level in bronchoalveolar lavage fluid administered 2 hrs before and 10 hrs after ovalbumin challenge measured after 24 hrs by ELISA; assay type: functional, organism-based; conditions: Lung
[37] = test system: Mus musculus; assay: Antiinflammatory activity in ovalbumin-sensitized BALB/c mouse asthma model assessed as reduction in methacholine-induced distensibility of the lung at 1 mg/kg, ip administered 2 hrs before and 10 hrs after ovalbumin challenge; assay type: functional, organism-based; set-up: dose 1 mg/kg
[38] = test system: Mus musculus; assay: Inhibition of ovalbumin-induced mast cell degranulation in BALB/c mouse asthma model at 1 mg/kg, ip administered 2 hrs before and 10 hrs after ovalbumin challenge measured after 24 hrs using toluidine blue staining by cell counting; assay type: functional, organism-based; set-up: dose 1 mg/kg
[39] = test system: Mus musculus; assay: Antiinflammatory activity in ovalbumin-sensitized BALB/c mouse asthma model lung assessed as suppression in Ym-2 mRNA level at 1 mg/kg, ip administered 2 hrs before and 10 hrs after ovalbumin challenge measured after 24 hrs by RT-PCR analysis; assay type: functional, organism-based; set-up: dose 1 mg/kg
[40] = test system: Mus musculus; assay: Antiinflammatory activity in ovalbumin-sensitized BALB/c mouse asthma model assessed as reduction in total IgE level in serum at 0.1 to 1 mg/kg, ip administered 2 hrs before and 10 hrs after ovalbumin challenge measured after 24 hrs by ELISA; assay type: functional, organism-based

Sequence of Transcription factor p65 (Homo sapiens) (Q04206 whole entry): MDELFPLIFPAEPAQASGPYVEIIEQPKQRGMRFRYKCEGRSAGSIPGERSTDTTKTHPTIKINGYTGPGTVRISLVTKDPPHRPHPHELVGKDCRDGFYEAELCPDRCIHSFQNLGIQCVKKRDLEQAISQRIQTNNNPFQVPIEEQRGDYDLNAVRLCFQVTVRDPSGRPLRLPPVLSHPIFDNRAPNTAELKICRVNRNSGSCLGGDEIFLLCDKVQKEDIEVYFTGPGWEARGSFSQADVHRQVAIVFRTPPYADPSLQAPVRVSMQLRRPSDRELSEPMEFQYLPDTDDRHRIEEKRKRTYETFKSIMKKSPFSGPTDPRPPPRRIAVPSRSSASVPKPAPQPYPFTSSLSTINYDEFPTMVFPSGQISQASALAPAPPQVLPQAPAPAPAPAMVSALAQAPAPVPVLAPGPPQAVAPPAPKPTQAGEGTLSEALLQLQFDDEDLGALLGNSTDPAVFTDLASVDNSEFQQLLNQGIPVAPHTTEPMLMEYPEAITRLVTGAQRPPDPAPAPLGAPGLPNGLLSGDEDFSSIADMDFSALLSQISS

C=C1CC[C@@H]2[C@](C)(CO)[C@H](O)CC[C@@]2(C)[C@@H]1/C=C/C1=CCOC1=O
inactive: Activity [11] | inhibition [24] | inhibition [38]
Non-toxic: Activity [6] | Activity [8] | Activity [9] | Activity [18] | Activity [21] | Activity [30] | Activity [35]
active: Activity [1] Dose-dependent effect | Activity [2] | Activity [3] | Activity [4] Dose-dependent effect | Activity [5] Dose-dependent effect | inhibition [7] | Activity [10] | Activity [12] | inhibition [13] | inhibition [14] | Activity [15] | Activity [16] Dose-dependent effect | Activity [17] | Activity [19] | Activity [20] | Activity [22] | Activity [23] | Activity [25] | Activity [26] | Activity [27] | Activity [28] | Activity [29] | Activity [31] | Activity [32] | Activity [33] | Activity [34] Dose-dependent effect | Activity [36] Dose-dependent effect | Activity [37] | Activity [39] | Activity [40]
